Data published in US20100227921A1, “AMINO ACID AND PEPTIDE CARBAMATE PRODRUGS OF […] USES THEREOF” (SHIRE LLC, priority 2009, published 2010).
Several values for one entry are separate records, joined by “and”; a condition that tells them apart may be missing. Equal values may be shown once. Marks after values point to notes of the source that are not given here.

Legend:
[1] = Comparative bioavailability after oral administration to rats (plasma LC-MS-MS); format: in vivo
Description: Test substances, i.e., tapentadol or tapentadol valine carbamate were administered by oral gavage to groups of male Sprague Dawley rats.
Blood samples were taken at various times after administration and submitted to analysis for the parent drug and pro-drug using a validated LC-MS-MS assay. Pharmacokinetic parameters derived from the plasma analytical data were determined using Win Nonlin.

[2] = 75 mg immediate release dosage; Afilalo et al. 2008; cited from earlier work
[3] = male rat, oral tapentadol 10 mg free base equiv/kg, individual animals 1-5 (5 outlier)

In the case of `CC[C@@H](c1cccc(O)c1)[C@@H](C)CN(C)C` (racemic) [Tapentadol, (−)-(1R,2R)-3-(3-dimethyl-amino-1-ethyl-2-methyl-propyl)-phenol], the “Plasma concentration of tapentadol” value ([1]; male rat, oral tapentadol 10 mg free base equiv/kg, 4 h, individual animals 1-5 (5 outlier)) is reported as 1.65 ng/mL and 3.61 ng/mL and 1.67 ng/mL and 2.62 ng/mL and 9.10 ng/mL, the “Plasma concentration of tapentadol” value ([1]; male rat, oral tapentadol 10 mg free base equiv/kg, 6 h, individual animals 1-5 (5 outlier)) is reported as 1.38 ng/mL and 1.19 ng/mL and 1.25 ng/mL and 2.00 ng/mL and 5.77 ng/mL and the “Plasma concentration of tapentadol” value ([1]; male rat, oral tapentadol 10 mg free base equiv/kg, 8 h, individual animals 1-5 (5 outlier)) is reported as 0.991 ng/mL and 1.08 ng/mL and 0.684 ng/mL and 1.27 ng/mL and 5.15 ng/mL. The “Plasma concentration of tapentadol” value ([1]; male rat, oral tapentadol 10 mg free base equiv/kg, 12 h, individual animals 1-5 (5 outlier)) was “BLQ (BLQ Values less than level of quantification (LOQ, <0.5 ng/mL))”, the “Plasma concentration of tapentadol” value ([1]; male rat, oral tapentadol 10 mg free base equiv/kg, 24 h, individual animals 1-5) was “BLQ (BLQ Values less than level of quantification (LOQ, <0.5 ng/mL))” and the AUCt of tapentadol [1, 3] was 0.0154 µg·h/mL and 0.0153 µg·h/mL and 0.0142 µg·h/mL and 0.0206 µg·h/mL and 0.151 µg·h/mL. For the same compound, the Cmax of tapentadol [1, 3] was 3.98 ng/mL and 3.61 ng/mL and 5.21 ng/mL and 5.87 ng/mL and 70.5 ng/mL, the “T>50%Cmax of tapentadol” value [1, 3] was 1.5 h (2×) and 1.0 h and 0.5 h and the Tmax of tapentadol [1, 3] was 4 h. For the same compound, the t½ of tapentadol ([1]; male rat, oral tapentadol 10 mg free base equiv/kg, individual animals 1-5 (5 outlier; animals 1 and 4 estimates)) was 6.13^c h and 2.30 h and 3.11 h and 3.83^c h and 2.59 h, the AUC of tapentadol ([1]; male rat, oral tapentadol 10 mg free base equiv/kg, individual animals 1-5 (5 outlier; animals 1 and 4 estimates, extrapolated portion >25%)) was 24.6^c ng · h/mL and 18.4 ng · h/mL and 17.4 ng · h/mL and 27.8^c ng · h/mL and 156 ng · h/mL and the “T>50%Cmax of tapentadol” value ([1]; male rat, oral tapentadol 10 mg free base equiv/kg, median, animal 5 excluded) was 1.5^a h. For the same compound, the “Plasma concentration of tapentadol” value ([1]; male rat, oral tapentadol valine carbamate 10 mg tapentadol free base equiv/kg, 0.5 h, individual animals 6-10) was “BLQ (BLQ Values less than LOQ (<0.5 ng/mL))”, the “Plasma concentration of tapentadol” value ([1]; male rat, oral tapentadol valine carbamate 10 mg tapentadol free base equiv/kg, 1 h, individual animals 6-10) was “BLQ (BLQ Values less than LOQ (<0.5 ng/mL))” and the “Plasma concentration of tapentadol” value ([1]; male rat, oral tapentadol valine carbamate 10 mg tapentadol free base equiv/kg, 2 h, individual animals 6-10) was “BLQ (BLQ Values less than LOQ (<0.5 ng/mL))”. For the same compound, the “Plasma concentration of tapentadol” value ([1]; male rat, oral tapentadol valine carbamate 10 mg tapentadol free base equiv/kg, 3 h, individual animals 6-10) was “BLQ (BLQ Values less than LOQ (<0.5 ng/mL))”, the “Plasma concentration of tapentadol” value ([1]; male rat, oral tapentadol valine carbamate 10 mg tapentadol free base equiv/kg, 4 h, individual animals 6-10) was “BLQ (BLQ Values less than LOQ (<0.5 ng/mL))” and the “Plasma concentration of tapentadol” value ([1]; male rat, oral tapentadol valine carbamate 10 mg tapentadol free base equiv/kg, 12 h, individual animals 6-10) was “BLQ (BLQ Values less than LOQ (<0.5 ng/mL))”. For the same compound, the “Plasma concentration of tapentadol” value ([1]; male rat, oral tapentadol valine carbamate 10 mg tapentadol free base equiv/kg, 24 h, individual animals 6-10) was “BLQ (BLQ Values less than LOQ (<0.5 ng/mL))”, the “T>50%Cmax of tapentadol” value ([1]; male rat, oral tapentadol valine carbamate 10 mg tapentadol free base equiv/kg, individual animals 6-10) was 2 h and the “T>50%Cmax of tapentadol” value ([1]; male rat, oral tapentadol valine carbamate 10 mg tapentadol free base equiv/kg, median) was 2^a h. For the same compound, the concentration at 0.5 h ([1]; male, Sprague Dawley, rat, plasma, po, 10 mg free base equiv/kg, oral tapentadol 10 mg free base equiv/kg, 0.5 h, mean, animal 5 excluded, read-out: Plasma concentration of tapentadol) was 2.73 ng/mL, the concentration at 1 h ([1]; male, Sprague Dawley, rat, plasma, po, 10 mg free base equiv/kg, oral tapentadol 10 mg free base equiv/kg, 1 h, mean, animal 5 excluded, read-out: Plasma concentration of tapentadol) was 4.34 ng/mL and the concentration at 2 h ([1]; male, Sprague Dawley, rat, plasma, po, 10 mg free base equiv/kg, oral tapentadol 10 mg free base equiv/kg, 2 h, mean, animal 5 excluded, read-out: Plasma concentration of tapentadol) was 2.44 ng/mL. It also gave a concentration at 3 h ([1]; male, Sprague Dawley, rat, plasma, po, 10 mg free base equiv/kg, oral tapentadol 10 mg free base equiv/kg, 3 h, mean, animal 5 excluded, read-out: Plasma concentration of tapentadol) of 1.82 ng/mL, a concentration at 4 h ([1]; male, Sprague Dawley, rat, plasma, po, 10 mg free base equiv/kg, oral tapentadol 10 mg free base equiv/kg, 4 h, mean, animal 5 excluded, read-out: Plasma concentration of tapentadol) of 2.39 ng/mL and a concentration at 6 h ([1]; male, Sprague Dawley, rat, plasma, po, 10 mg free base equiv/kg, oral tapentadol 10 mg free base equiv/kg, 6 h, mean, animal 5 excluded, read-out: Plasma concentration of tapentadol) of 1.45 ng/mL. For the same compound, the concentration at 8 h ([1]; male, Sprague Dawley, rat, plasma, po, 10 mg free base equiv/kg, oral tapentadol 10 mg free base equiv/kg, 8 h, mean, animal 5 excluded, read-out: Plasma concentration of tapentadol) was 1.01 ng/mL, the concentration at 12 h ([1]; male, Sprague Dawley, rat, plasma, po, 10 mg free base equiv/kg, oral tapentadol 10 mg free base equiv/kg, 12 h, individual animals 1-5 (5 outlier), read-out: Plasma concentration of tapentadol) was 1.09 ng/mL and the AUC ([1]; male, Sprague Dawley, rat, plasma, po, 10 mg free base equiv/kg, oral tapentadol 10 mg free base equiv/kg, mean, animal 5 and estimates excluded) was 0.0179 µg·h/mL. It also gave a half-life ([1]; male, Sprague Dawley, rat, plasma, po, 10 mg free base equiv/kg, oral tapentadol 10 mg free base equiv/kg, mean, animal 5 and estimates excluded, read-out: t½ of tapentadol (converted)) of 2.64 h, an AUC(0-t) ([1]; male, Sprague Dawley, rat, plasma, po, 10 mg free base equiv/kg, oral tapentadol 10 mg free base equiv/kg, mean, animal 5 excluded, read-out: AUCt of tapentadol) of 0.0164 µg·h/mL and a Cmax ([1]; male, Sprague Dawley, rat, plasma, po, 10 mg free base equiv/kg, oral tapentadol 10 mg free base equiv/kg, mean, animal 5 excluded, read-out: Cmax of tapentadol) of 4.67 ng/mL. The Tmax ([1]; male, Sprague Dawley, rat, plasma, po, 10 mg free base equiv/kg, oral tapentadol 10 mg free base equiv/kg, median, animal 5 excluded, read-out: Tmax of tapentadol) was 1 h, the patients with nausea/vomiting [2] was 30-35% and the “treated patients with constipation” value [2] was roughly 11%.
